{"source": "patent US20240174727A1", "about": "“LONG-ACTING NATRIURETIC PEPTIDES AND USES THEREOF” (Eli Lilly and Company, priority 2022, published 2024)", "target": "T1, rat NPRA (Rattus norvegicus, UniProt P18910)", "T1 construct": "Full-Length cDNA Cloning and Generation of Cell Lines Overexpressing Natriuretic Peptide Receptors (NPRs); expressed in transfected cells; host or cells: Jump-in T-Rex HEK293 cells, pJTI R4 CMV-TO MCS pA vector, tetracycline induction", "T1 sequence (P18910 29-1057)": "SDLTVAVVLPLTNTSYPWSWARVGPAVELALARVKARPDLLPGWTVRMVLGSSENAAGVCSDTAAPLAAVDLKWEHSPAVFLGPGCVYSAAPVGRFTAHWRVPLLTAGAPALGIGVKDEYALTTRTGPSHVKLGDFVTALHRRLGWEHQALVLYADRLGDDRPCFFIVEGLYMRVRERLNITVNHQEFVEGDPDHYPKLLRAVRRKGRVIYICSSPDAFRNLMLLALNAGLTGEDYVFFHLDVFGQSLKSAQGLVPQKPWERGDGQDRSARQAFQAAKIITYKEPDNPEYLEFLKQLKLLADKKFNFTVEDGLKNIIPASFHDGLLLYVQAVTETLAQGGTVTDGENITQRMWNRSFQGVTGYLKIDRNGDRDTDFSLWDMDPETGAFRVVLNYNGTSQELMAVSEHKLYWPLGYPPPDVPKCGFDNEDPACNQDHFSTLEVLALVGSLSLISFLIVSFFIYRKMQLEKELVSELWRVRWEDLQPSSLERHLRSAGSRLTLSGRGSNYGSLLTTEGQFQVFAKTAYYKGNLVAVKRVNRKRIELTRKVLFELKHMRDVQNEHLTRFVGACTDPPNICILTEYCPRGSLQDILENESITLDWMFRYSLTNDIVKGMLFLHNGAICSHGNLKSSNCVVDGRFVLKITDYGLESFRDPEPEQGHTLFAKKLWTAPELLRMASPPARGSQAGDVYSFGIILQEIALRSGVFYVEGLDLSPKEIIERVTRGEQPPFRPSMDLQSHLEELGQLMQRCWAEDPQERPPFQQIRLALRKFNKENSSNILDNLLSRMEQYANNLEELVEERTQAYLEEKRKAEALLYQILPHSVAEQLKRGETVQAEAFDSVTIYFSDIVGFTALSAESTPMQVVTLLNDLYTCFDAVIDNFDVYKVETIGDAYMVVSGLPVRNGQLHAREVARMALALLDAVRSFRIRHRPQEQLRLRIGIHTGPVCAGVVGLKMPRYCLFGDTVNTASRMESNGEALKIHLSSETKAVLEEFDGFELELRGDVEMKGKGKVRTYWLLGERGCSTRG", "experiment": "Rat NPRA cGMP activity assay (HTRF) in HEK293 cells overexpressing NPRA", "type": "cell-based", "procedure": "All sequences were verified by full-length sequencing performed by ACGT DNA Sequencing Services (Wheeling, IL). The target cDNA was cloned into pJTI R4 CMV-TO MCS pA vector and then co-transfected with pJT1R4 Int vector into Jump-in™ T-Rex™ HEK293 cells for mammalian inducible expression using Jump-in™ T-Rex™ HEK293 kit and Lipofectamine LTX and Plus Reagent following manufacturer's protocols, as briefly described below.\nJump-in™ T-Rex™ HEK293 cells were plated in a BioCOAT® poly-D-lysine coated 6-well plate (Becton Dickinson, cat no. 354413) at 1 million cells/well in 2 mL culture medium and incubated for 18 h at 37° C. and 5% CO2 to 50-70% confluence. A cDNA mix was made in a 50 mL tube by adding 1.5 μg target cDNA, 1.5 μg pJT1R4 Int vector, 3 μL Plus Reagent, and 300 μL Opti-MEM I sequentially into the tube. A reagent mix was made in a separate 50 mL tube by adding 7.5 μL Lipofectamine LTX into 300 μL Opti-MEM I. The mixtures were incubated for 5 min at room temperature. The cDNA mix was then transferred into the reagent mix, mixed well, and incubated for additional 30 min at room temperature. A 500 μL of cDNA/Lipofectamine complex was then transferred to the wells of the cell plate in which the culture medium was changed to 2 mL of transfection medium containing DMEM with 4.5 g/L D-glucose supplemented with 10% FBS-HI and 20 mM HEPES. Transfected cells were cultured for 48 h in an incubator at 37° C. and 5% CO2. A subclone or pool from each overexpressing cell line was maintained in culture medium with the addition of 2 mg/mL G418 sulfate for the clone selection based on its built-in resistance to G418 sulfate for at least 3 weeks with medium changed every 2-3 days.\nNPRs were overexpressed in T-Rex™ HEK293 cells following the induction with 300 ng/mL tetracycline in culture medium for 48 h. Induced cell lines in an exponential growth phase were treated with 0.05% trypsin-EDTA for a few seconds at room temperature, harvested in cell medium containing FBS to neutralize the trypsin, counted, and cryopreserved at the density of 2 million cells/mL in cell preservation solution containing FBS-HI with 5% DMSO. Cryopreserved cells were stored at −80° C. for a few days prior to transferring to a liquid nitrogen tank. Induced cell lines were then used for suspension assays to measure the activity of polypeptides to stimulate cGMP production in cGMP assays or for the preparation of cell membranes to measure the binding activity of polypeptides in competitive radioligand binding assays, as described below.\nTest polypeptides were added starting at 10 μM concentration and at 10-fold decreasing concentrations to obtain 8-point concentration-response curves (i.e., 10 μM to 1 pM). The quantity of cGMP generated was detected using HTRF® technology and normalized to maximum amount produced by 100 nM amidated rat ANP and the minimum amount produced by assay buffer. Detailed steps are outlined below.\nStock solutions of test polypeptides (2 mM) dissolved in DMSO were first diluted 100-fold in assay buffer containing HBSS with Ca^2+ and Mg^2+, 5 mM HEPES, 0.5 mM IBMX, and 0.1% BSA or 0.1% casein (pH 7.4). The polypeptides were further serially diluted in 1:10 dilution steps in assay buffer containing 0.1% BSA or 0.1% casein to generate 8-point 2× working stock solutions ranging from 20 μM to […].\nA 10 μL cell suspension containing 4000 cells was plated in Costar® half-area white opaque 96-well plates (Corning, cat no. 3693). Then 10 μL of assay buffer (basal activity), 200 nM of amidated rat ANP (maximum activity) or 2× working stock solutions of test polypeptides were transferred into the plate. Final concentration of DMSO in each well was 0.5%. The plate was shaken for 15 sec and then incubated for 40 min at room temperature.\nThe cGMP generated was measured using cGMP kit following the manufacturer's directions, as described below.", "key": {"[1]": {"settings": "assay buffer with 0.1% casein, read-out: cGMP Assay (EC50, pM) w/Casein rNPRA"}}, "note": "Read-outs that look alike come from different tables or passages of the source. Numbered stars: 1 amine (or outer) side, 2 acyl side, 3 side chain; on linkers, the order of the positions; unused ones are H or OH. Bridge positions count the residues as written; N and C are the ends. Square brackets hold non-standard residues; d marks the D form. * marks the point of attachment. PEG24 = NCCOCCOCCOCCOCCOCCOCCOCCOCCOCCOCCOCCOCCOCCOCCOCCOCCOCCOCCOCCOCCOCCOCCOCCOCCC(=O)O; C20 diacid = O=C(O)CCCCCCCCCCCCCCCCCCC(=O)*; γGlu = O=C(O)[C@H](CCC(=O)[*:2])N[*:1]; CH2 = C([*:1])[*:2]"}
{"compound": "CC[C@H](C)[C@@H]1NC(=O)[C@H](CCCNC(=N)N)NC(=O)[C@H](CC(=O)O)NC(=O)[C@H]([C@@H](C)CC)NC(=O)[C@H](CCCNC(=N)N)NC(=O)[C@H](CCCCN)NC(=O)CNC(=O)[C@H](Cc2ccccc2)NC(=O)[C@@H](NC(=O)[C@H](CO)NC(=O)[C@H](CO)NC(=O)[C@H](CCCNC(=N)N)NC(=O)[C@H](CCCNC(=N)N)NC(=O)[C@H](Cc2ccncc2)NC(=O)[C@H](CO)NC(=O)CCOCCOCCOCCOCCOCCOCCOCCOCCOCCOCCOCCOCCOCCOCCOCCOCCOCCOCCOCCOCCOCCOCCOCCOCCNC(=O)CNC(=O)[C@H](CCCCN)NC(=O)[C@H](CCC(=O)O)NC(=O)[C@H](CCCCN)NC(=O)[C@H](CCC(=O)O)NC(=O)[C@H](CCCCN)NC(=O)[C@H](CCC(=O)O)NC(=O)CC[C@H](NC(=O)CCCCCCCCCCCCCCCCCCC(=O)O)C(=O)O)CSCSC[C@@H](C(=O)N2CCC[C@H]2C(=O)N[C@@H](CO)C(=O)N[C@@H](Cc2ccccc2)C(=O)N[C@@H](CCCNC(=N)N)C(=O)N[C@@H](Cc2c[nH]cn2)C(=O)NCC(=O)N[C@@H](CO)C(=O)N2CCC[C@H]2C(=O)N[C@@H](CO)C(=O)N[C@@H](CO)C(=O)NCC(=O)N[C@@H](C)C(=O)N2CCC[C@H]2C(=O)N2CCC[C@H]2C(=O)N2CCC[C@H]2C(=O)N[C@@H](CO)C(N)=O)NC(=O)CNC(=O)[C@H](CC(C)C)NC(=O)CNC(=O)[C@H](CO)NC(=O)[C@H](Cc2ccc(O)cc2)NC(=O)[C@H](Cc2c[nH]cn2)NC(=O)CNC1=O", "note": "[Example 115]", "values": [{"measurement": "EC50", "setting": "cGMP Assay (EC50, pM) w/BSA rNPRA, assay buffer with 0.1% BSA", "result": 100000, "unit": "pM"}]}
{"compound": "CC[C@H](C)[C@@H]1NC(=O)[C@H](CCCNC(=N)N)NC(=O)[C@H](CC(=O)O)NC(=O)[C@H]([C@@H](C)CC)NC(=O)[C@H](CCCNC(=N)N)NC(=O)[C@H](CCCCN)NC(=O)CNC(=O)[C@H](Cc2ccccc2)NC(=O)[C@@H](NC(=O)[C@H](CO)NC(=O)[C@H](CO)NC(=O)[C@H](CCCNC(=N)N)NC(=O)CCNC(=O)[C@H](CCCCN)NC(=O)[C@H](CCC(=O)O)NC(=O)COCCOCCNC(=O)COCCOCCNC(=O)COCCOCCNC(=O)COCCOCCNC(=O)COCCOCCNC(=O)COCCOCCNC(=O)COCCOCCNC(=O)COCCOCCNC(=O)CNC(=O)[C@H](CCCCN)NC(=O)[C@H](CCC(=O)O)NC(=O)[C@H](CCCCN)NC(=O)[C@H](CCC(=O)O)NC(=O)[C@H](CCCCN)NC(=O)[C@H](CCC(=O)O)NC(=O)CC[C@H](NC(=O)CCCCCCCCCCCCCCCCCCC(=O)O)C(=O)O)CSCSC[C@@H](C(=O)N2CCC[C@H]2C(=O)N[C@@H](CO)C(=O)N[C@@H](Cc2ccccc2)C(=O)N[C@@H](CCCNC(=N)N)C(=O)N[C@@H](Cc2c[nH]cn2)C(=O)NCC(=O)N[C@@H](CO)C(=O)N2CCC[C@H]2C(=O)N[C@@H](CO)C(=O)N[C@@H](CO)C(=O)NCC(=O)N[C@@H](C)C(=O)N2CCC[C@H]2C(=O)N2CCC[C@H]2C(=O)N2CCC[C@H]2C(=O)N[C@@H](CO)C(N)=O)NC(=O)CNC(=O)[C@H](CC(C)C)NC(=O)CNC(=O)[C@H](CO)NC(=O)[C@H](CCC(N)=O)NC(=O)[C@H](Cc2c[nH]cn2)NC(=O)CNC1=O", "note": "[Example 120]", "values": [{"measurement": "EC50", "setting": "[1]", "result": 25400, "unit": "pM"}]}
{"compound": "{C20 diacid-γGlu}-EKEKEKG[PEG24]EKPRSSCFGKGIDRIGHQSGLGCPSFRHSGSPSSGAPPPSG-NH2 (linker 15-31 via CH2) [Example 133, HOOC-(CH2)18-CO-(γGlu)-EKEKEKG-PEG24-EKPRSS[CFGKGIDRIGHQSGLGCJPSFRHSGSPSSGAPPPSG-NH2]", "values": [{"measurement": "EC50", "setting": "[1]", "result": 581000, "unit": "pM"}]}
{"compound": "CC[C@H](C)[C@@H]1NC(=O)[C@H](CCCNC(=N)N)NC(=O)[C@H](CC(=O)O)NC(=O)[C@H]([C@@H](C)CC)NC(=O)[C@H](CCCNC(=N)N)NC(=O)[C@H](CCCCN)NC(=O)CNC(=O)[C@H](Cc2ccccc2)NC(=O)[C@@H](NC(=O)[C@H](CO)NC(=O)[C@H](CO)NC(=O)[C@H](CCCNC(=N)N)NC(=O)[C@@H]2CCCN2C(=O)[C@H](CCCCN)NC(=O)[C@H](CCC(=O)O)NC(=O)COCCOCCNC(=O)COCCOCCNC(=O)COCCOCCNC(=O)COCCOCCNC(=O)COCCOCCNC(=O)COCCOCCNC(=O)CNC(=O)[C@H](CCCCN)NC(=O)[C@H](CCC(=O)O)NC(=O)[C@H](CCCCN)NC(=O)[C@H](CCC(=O)O)NC(=O)[C@H](CCCCN)NC(=O)[C@H](CCC(=O)O)NC(=O)CC[C@H](NC(=O)CCCCCCCCCCCCCCCCCCC(=O)O)C(=O)O)CSCSC[C@@H](C(=O)N2CCC[C@H]2C(=O)N[C@@H](CO)C(=O)N[C@@H](Cc2ccccc2)C(=O)N[C@@H](CCCNC(=N)N)C(=O)N[C@@H](Cc2c[nH]cn2)C(=O)NCC(=O)N[C@@H](CO)C(=O)N2CCC[C@H]2C(=O)N[C@@H](CO)C(=O)N[C@@H](CO)C(=O)NCC(=O)N[C@@H](C)C(=O)N2CCC[C@H]2C(=O)N2CCC[C@H]2C(=O)N2CCC[C@H]2C(=O)N[C@@H](CO)C(N)=O)NC(=O)CNC(=O)[C@H](CC(C)C)NC(=O)CNC(=O)[C@H](CO)NC(=O)[C@H](Cc2ccc(O)cc2)NC(=O)[C@H](Cc2c[nH]cn2)NC(=O)CNC1=O", "note": "[Example 122, HOOC-(CH2)18-CO-(γGlu)-EKEKEKG-(AEEA)6-EKPRSS[CFGKRIDRIGHYSGLGCJPSFRHGSPSSGAPPPS-NH2]", "values": [{"measurement": "EC50", "setting": "cGMP Assay (EC50, pM) w/Casein rNPRA, assay buffer with 0.1% casein", "result": 3770, "unit": "pM"}]}
